Here are results for 33 compounds from patent US8541588B2, “Sulfonamide derivatives” (Pfizer Limited, priority 2009, dated 2013).

T1 sequence (Q15858 whole entry): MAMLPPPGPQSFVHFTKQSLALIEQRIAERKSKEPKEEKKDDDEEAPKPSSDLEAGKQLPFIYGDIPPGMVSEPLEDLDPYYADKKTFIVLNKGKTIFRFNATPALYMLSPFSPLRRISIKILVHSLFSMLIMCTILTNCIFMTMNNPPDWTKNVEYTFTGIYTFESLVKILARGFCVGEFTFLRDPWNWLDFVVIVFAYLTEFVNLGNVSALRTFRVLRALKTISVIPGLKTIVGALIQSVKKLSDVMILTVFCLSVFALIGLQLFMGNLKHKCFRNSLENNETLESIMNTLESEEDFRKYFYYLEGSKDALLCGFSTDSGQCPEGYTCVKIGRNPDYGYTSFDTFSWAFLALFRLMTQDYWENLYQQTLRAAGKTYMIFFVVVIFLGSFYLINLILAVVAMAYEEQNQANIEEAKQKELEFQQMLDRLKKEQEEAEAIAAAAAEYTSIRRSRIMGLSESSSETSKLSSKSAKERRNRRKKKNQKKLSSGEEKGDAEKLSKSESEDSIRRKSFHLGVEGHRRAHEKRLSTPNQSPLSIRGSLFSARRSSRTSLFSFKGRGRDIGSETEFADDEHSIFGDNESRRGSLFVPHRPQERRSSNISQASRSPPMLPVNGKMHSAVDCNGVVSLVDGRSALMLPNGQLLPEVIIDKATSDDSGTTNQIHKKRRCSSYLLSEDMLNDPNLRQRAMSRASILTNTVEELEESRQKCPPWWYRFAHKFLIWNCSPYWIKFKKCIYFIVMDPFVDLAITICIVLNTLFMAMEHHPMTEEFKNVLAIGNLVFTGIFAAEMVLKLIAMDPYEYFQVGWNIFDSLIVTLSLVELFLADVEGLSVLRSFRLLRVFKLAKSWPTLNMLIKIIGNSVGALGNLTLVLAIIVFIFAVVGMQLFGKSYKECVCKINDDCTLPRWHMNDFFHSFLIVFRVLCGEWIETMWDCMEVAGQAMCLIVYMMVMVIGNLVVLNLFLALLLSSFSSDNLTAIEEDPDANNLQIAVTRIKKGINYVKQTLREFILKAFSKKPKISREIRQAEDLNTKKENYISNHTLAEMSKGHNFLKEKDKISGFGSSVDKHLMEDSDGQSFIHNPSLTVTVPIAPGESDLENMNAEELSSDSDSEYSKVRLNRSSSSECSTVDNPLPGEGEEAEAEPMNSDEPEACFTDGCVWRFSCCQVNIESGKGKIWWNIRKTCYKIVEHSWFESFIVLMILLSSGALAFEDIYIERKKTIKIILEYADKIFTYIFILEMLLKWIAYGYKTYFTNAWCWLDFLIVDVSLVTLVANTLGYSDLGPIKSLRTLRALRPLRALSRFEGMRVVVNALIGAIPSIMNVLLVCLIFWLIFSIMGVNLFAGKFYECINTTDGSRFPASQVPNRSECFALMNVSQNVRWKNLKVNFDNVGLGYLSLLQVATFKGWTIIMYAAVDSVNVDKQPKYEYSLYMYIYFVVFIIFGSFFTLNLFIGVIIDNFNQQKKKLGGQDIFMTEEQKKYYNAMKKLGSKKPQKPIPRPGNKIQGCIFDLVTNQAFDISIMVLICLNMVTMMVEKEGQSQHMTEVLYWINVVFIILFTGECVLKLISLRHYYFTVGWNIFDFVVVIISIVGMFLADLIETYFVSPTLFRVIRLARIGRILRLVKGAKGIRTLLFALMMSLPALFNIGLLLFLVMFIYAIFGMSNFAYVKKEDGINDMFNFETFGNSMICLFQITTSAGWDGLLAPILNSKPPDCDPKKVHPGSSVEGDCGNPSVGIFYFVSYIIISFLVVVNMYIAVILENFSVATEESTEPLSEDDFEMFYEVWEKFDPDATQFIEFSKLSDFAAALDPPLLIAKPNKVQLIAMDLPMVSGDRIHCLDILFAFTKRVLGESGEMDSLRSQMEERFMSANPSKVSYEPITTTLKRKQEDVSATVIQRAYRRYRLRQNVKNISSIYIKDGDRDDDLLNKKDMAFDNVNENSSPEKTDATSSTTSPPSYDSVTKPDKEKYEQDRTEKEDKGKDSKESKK

This experiment addresses T1, Nav1.7 (or SCN9A) channel; HEK cells stably transfected with hSCN9A (Homo sapiens, UniProt Q15858).
T1 construct: expressed in transfected cells
As to the kind of experiment: Nav1.7 block, PatchXpress 7000 automated whole-cell voltage clamp, estimated IC50 (EIC50). It is filed as cell-based. The conditions noted are these: estimated IC50; hSCN9A HEK cells, PatchXpress platform; Examples 815-1040.
As for `Cc1n[nH]cc1-c1ccccc1Oc1ccc(S(=O)(=O)Nc2nccs2)cc1C(N)=O` [Example 983, 2-[2-(3-methyl-1H-pyrazol-4-yl)phenoxy]-5-[(1,3-thiazol-2-ylamino)sulfonyl]benzamide], the IC50 – broadly, the concentration that gives 50% inhibition – is 2700 nM. With `CCOc1n[nH]cc1-c1cc(Cl)ccc1Oc1cc(F)c(S(=O)(=O)Nc2cscn2)cc1F` [Example 984, 4-[4-chloro-2-(3-ethoxy-1H-pyrazol-4-yl)phenoxy]-2,5-difluoro-N-1,3-thiazol-4-ylbenzenesulfonamide] the figure was 560 nM; with `N#Cc1cc(S(=O)(=O)Nc2nccs2)ccc1Oc1ccccc1-c1cncnc1` [Example 985, 3-cyano-4-(2-pyrimidin-5-ylphenoxy)-N-1,3-thiazol-2-ylbenzenesulfonamide], 2300 nM; with `N#Cc1cc(S(=O)(=O)Nc2nccs2)ccc1Oc1ccc(-c2cnn(CC(F)(F)F)c2N)cc1` [Example 986, 4-{4-[5-amino-1-(2,2,2-trifluoroethyl)-1H-pyrazol-4-yl]phenoxy}-3-cyano-N-1,3-thiazol-2-ylbenzenesulfonamide], >10000 nM. Take `N#Cc1cc(S(=O)(=O)Nc2ncns2)ccc1Oc1ccc(C(F)(F)F)cc1-c1cccc(CN2CC[C@@H](O)C2)c1` [Example 987, 3-cyano-4-{[3′-{[(3R)-3-hydroxypyrrolidin-1-yl]methyl}-5-(trifluoromethyl)biphenyl-2-yl]oxy}-N-1,2,4-thiadiazol-5-ylbenzenesulfonamide]: the 50% inhibitory concentration (IC50) is 1.1 nM.

Take `N#Cc1cc(S(=O)(=O)Nc2ncns2)ccc1Oc1ccc(C(F)(F)F)cc1-c1cccc(CN2CCC2)c1` [Example 988, 4-{[3′-(azetidin-1-ylmethyl)-5-(trifluoromethyl)biphenyl-2-yl]oxy}-3-cyano-N-1,2,4-thiadiazol-5-ylbenzenesulfonamide]: the IC50 is 0.7 nM. As for `CC(=O)N1CC(n2nccc2-c2cc(F)ccc2Oc2cc(F)c(S(=O)(=O)Nc3cscn3)cc2Cl)C1` [Example 989, 4-{2-[1-(1-acetylazetidin-3-yl)-1H-pyrazol-5-yl]-4-fluorophenoxy}-5-chloro-2-fluoro-N-1,3-thiazol-4-ylbenzenesulfonamide], the figure is 950 nM; as for `N#Cc1cc(S(=O)(=O)Nc2ncc(Cl)s2)ccc1Oc1ccc(Cl)cc1-c1ccon1` [Example 990, 4-(4-chloro-2-isoxazol-3-ylphenoxy)-N-(5-chloro-1,3-thiazol-2-yl)-3-cyanobenzenesulfonamide], 310 nM; as for `N#Cc1cc(S(=O)(=O)Nc2ncc(Cl)s2)ccc1Oc1ccc(F)cc1-c1cccc(N)n1` [Example 991, 4-[2-(6-aminopyridin-2-yl)-4-fluorophenoxy]-N-(5-chloro-1,3-thiazol-2-yl)-3-cyanobenzenesulfonamide], >10 nM.

As to `N#Cc1cc(S(=O)(=O)Nc2ncc(Cl)s2)ccc1Oc1cc(F)ccc1-c1ccn[nH]1` [Example 992, N-(5-chloro-1,3-thiazol-2-yl)-3-cyano-4-[5-fluoro-2-(1H-pyrazol-5-yl)phenoxy]benzenesulfonamide], the half-inhibitory concentration (IC50) is 540 nM.

On to `N#Cc1cnn(-c2ccc(Oc3ccc(S(=O)(=O)Nc4nccs4)cc3C#N)cc2)c1` [Example 994, 3-cyano-4-[4-(4-cyano-1H-pyrazol-1-yl)phenoxy]-N-1,3-thiazol-2-ylbenzenesulfonamide], for which the IC50 is 9500 nM. As for `COC(=O)N1CC(c2cc(Cl)ccc2Oc2ccc(S(=O)(=O)Nc3nccs3)cc2C#N)C1` [Example 995, methyl 3-(5-chloro-2-{2-cyano-4-[(1,3-thiazol-2-ylamino)sulfonyl]phenoxy}phenyl)azetidine-1-carboxylate], the figure is 1300 nM. As for `CCOC(=O)c1cnn(-c2ccc(Oc3ccc(S(=O)(=O)Nc4nccs4)cc3C#N)cc2)c1` [Example 996, ethyl 1-(4-{2-cyano-4-[(1,3-thiazol-2-ylamino)sulfonyl]phenoxy}phenyl)-1H-pyrazole-4-carboxylate], the figure is 760 nM. As for `N#Cc1cc(S(=O)(=O)Nc2ncns2)ccc1Oc1ccc(Cl)cc1-c1ccc(C(=O)O)cc1` [Example 999, 5′-chloro-2′-{2-cyano-4-[(1,2,4-thiadiazol-5-ylamino)sulfonyl]phenoxy}biphenyl-4-carboxylic acid], the figure is 3300 nM. Turning to `N#Cc1cc(S(=O)(=O)Nc2ncns2)ccc1Oc1ccc(Cl)cc1-c1cccc(CC(=O)O)c1` [Example 1000, (5′-chloro-2′-{2-cyano-4-[(1,2,4-thiadiazol-5-ylamino)sulfonyl]phenoxy}biphenyl-3-yl)acetic acid], the IC50 is 130 nM. With `N#Cc1cc(S(=O)(=O)Nc2ncns2)ccc1Oc1ccc(Cl)cc1-c1ccc(CC(=O)O)cc1` [Example 1001, (5′-chloro-2′-{2-cyano-4-[(1,2,4-thiadiazol-5-ylamino)sulfonyl]phenoxy}biphenyl-4-yl)acetic acid], the IC50 was 820 nM. With `N#Cc1cc(S(=O)(=O)Nc2ncns2)ccc1Oc1ccc(Cl)cc1-c1cccc(C(=O)O)c1` [Example 1002, 5′-chloro-2′-{2-cyano-4-[(1,2,4-thiadiazol-5-ylamino)sulfonyl]phenoxy}biphenyl-3-carboxylic acid] the figure was 140 nM; with `COC(=O)c1cccc(-c2cc(Cl)ccc2Oc2ccc(S(=O)(=O)Nc3ncns3)cc2C#N)c1` [Example 1003, methyl 5′-chloro-2′-{2-cyano-4-[(1,2,4-thiadiazol-5-ylamino)sulfonyl]phenoxy}biphenyl-3-carboxylate], 20 nM; with `N#Cc1cc(S(=O)(=O)Nc2ccc(F)cn2)ccc1Oc1ccc(F)cc1C1CC1` [Example 1004, 3-cyano-4-(2-cyclopropyl-4-fluorophenoxy)-N-(5-fluoropyridin-2-yl)benzenesulfonamide], 7100 nM. With `N#Cc1cc(S(=O)(=O)Nc2ccc(F)cn2)ccc1Oc1ccccc1C1CCCCO1` (stereo not drawn) [Example 1005, 3-cyano-N-(5-fluoropyridin-2-yl)-4-[2-(tetrahydro-2H-pyran-2-yl)phenoxy]benzenesulfonamide] the figure was >3000 nM.

In the case of `N#Cc1cc(S(=O)(=O)Nc2cccs2)ccc1Oc1ccccc1-c1ccccc1` [Example 1007, 4-(biphenyl-2-yloxy)-3-cyano-N-2-thienylbenzenesulfonamide], the IC50 is 3300 nM. As for `CN(C)C(=O)c1cccc(-c2ccccc2)c1Oc1ccc(S(=O)(=O)Nc2ncns2)cc1C#N` [Example 1008, 2-{2-cyano-4-[(1,2,4-thiadiazol-5-ylamino)sulfonyl]phenoxy}-N,N-dimethylbiphenyl-3-carboxamide], the figure is 740 nM; as for `Cc1ncccc1-c1cc(Cl)ccc1Oc1ccc(S(=O)(=O)Nc2ncns2)cc1C#N` [Example 1009, 4-[4-chloro-2-(2-methylpyridin-3-yl)phenoxy]-3-cyano-N-1,2,4-thiadiazol-5-ylbenzenesulfonamide], 21 nM; as for `Cc1nccnc1-c1cc(Cl)ccc1Oc1ccc(S(=O)(=O)Nc2ncns2)cc1C#N` [Example 1010, 4-[4-chloro-2-(3-methylpyrazin-2-yl)phenoxy]-3-cyano-N-1,2,4-thiadiazol-5-ylbenzenesulfonamide], 820 nM. With `Cc1cnccc1-c1cc(Cl)ccc1Oc1ccc(S(=O)(=O)Nc2ncns2)cc1C#N` [Example 1011, 4-[4-chloro-2-(3-methylpyridin-4-yl)phenoxy]-3-cyano-N-1,2,4-thiadiazol-5-ylbenzenesulfonamide] the figure was 28 nM. With `CN1CC(n2nccc2-c2cc(Cl)ccc2Oc2cc(F)c(S(=O)(=O)Nc3ncccn3)cc2Cl)C1` [Example 1012, 5-chloro-4-{4-chloro-2-[1-(1-methylazetidin-3-yl)-1H-pyrazol-5-yl]phenoxy}-2-fluoro-N-pyrimidin-2-ylbenzenesulfonamide] the figure was 270 nM; with `Nc1cc(-c2cc(C(F)(F)F)ccc2Oc2ccc(S(=O)(=O)Nc3ccncn3)cc2Cl)ccn1` [Example 1013, 4-[2-(2-aminopyridin-4-yl)-4-(trifluoromethyl)phenoxy]-3-chloro-N-pyrimidin-4-ylbenzenesulfonamide], 4.8 nM.

As to `Nc1cc(-c2cc(Cl)ccc2Oc2ccc(S(=O)(=O)Nc3cccnn3)cc2Cl)ccn1` [Example 1014, 4-[2-(2-aminopyridin-4-yl)-4-chlorophenoxy]-3-chloro-N-pyridazin-3-ylbenzenesulfonamide], the concentration for half-maximal inhibition (IC50) was 10 nM. As for `CN1CC(n2nccc2-c2cc(OC(F)(F)F)ccc2Oc2cc(F)c(S(=O)(=O)Nc3nncs3)cc2Cl)C1` [Example 1017, 5-chloro-2-fluoro-4-{2-[1-(1-methylazetidin-3-yl)-1H-pyrazol-5-yl]-4-(trifluoromethoxy)phenoxy}-N-1,3,4-thiadiazol-2-ylbenzenesulfonamide], the figure is 2.1 nM; as for `O=S(=O)(Nc1nncs1)c1ccc(Oc2ccc(Cl)cc2-c2ccnnc2)c(C(F)(F)F)c1` [Example 1018, 4-(4-chloro-2-pyridazin-4-ylphenoxy)-N-1,3,4-thiadiazol-2-yl-3-(trifluoromethyl)benzenesulfonamide], 230 nM.

Take `Nc1n[nH]cc1-c1cc(Cl)ccc1Oc1cc(F)c(S(=O)(=O)Nc2ncccn2)cc1Cl` [Example 1019, 4-[2-(3-amino-1H-pyrazol-4-yl)-4-chlorophenoxy]-5-chloro-2-fluoro-N-pyrimidin-2-ylbenzenesulfonamide]: the IC50 was 22 nM. For `Nc1cc(-c2cc(Cl)ccc2Oc2cc(F)c(S(=O)(=O)Nc3cscn3)cc2F)ccn1` [Example 1020, 4-[2-(2-aminopyridin-4-yl)-4-dchlorophenoxy]-2,5-ifluoro-N-1,3-thiazol-4-ylbenzenesulfonamide], the half-inhibitory concentration (IC50) is 19 nM. With `CC(C)(C#N)c1ccc(Oc2cc(F)c(S(=O)(=O)Nc3nncs3)cc2Cl)c(-c2ccnnc2)c1` [Example 1021, 5-chloro-4-[4-(1-cyano-1-methylethyl)-2-pyridazin-4-ylphenoxy]-2-fluoro-N-1,3,4-thiadiazol-2-ylbenzenesulfonamide] the figure was 1300 nM.
